Test results taken from ChEMBL document CHEMBL1275354, “Anticonvulsant activity of 2,4(1H)-diarylimidazoles in mice and rats acute seizure models” (Bioorg Med Chem, 2010).
Calls of active or inactive are those of the source. The rule behind the calls is not given here.

Assays:
Mus musculus [1] = assay: Anticonvulsant activity ip dosed albino CF1 mouse assessed as protection against maximal electroshock-induced seizures after 0.25 hrs; type: functional
Mus musculus [2] = assay: Anticonvulsant activity in albino CF1 mouse assessed as protection against subcutaneous metrazole-induced seizures at 300 mg/kg, ip after 4 hrs; type: functional, organism-based; parameters: dose 300 mg/kg
Mus musculus [3] = assay: Anticonvulsant activity in albino CF1 mouse assessed as protection against subcutaneous metrazole-induced seizures at 100 mg/kg, ip after 4 hrs; type: functional, organism-based; parameters: dose 100 mg/kg
Mus musculus [4] = assay: Neurotoxicity in albino CF1 mouse assessed as minimal motor impairment at 100 mg/kg, ip after 4 hrs by rotarod test; type: toxicity, organism-based; parameters: dose 100 mg/kg, route intraperitoneal; conditions: in vivo
Mus musculus [5] = assay: Anticonvulsant activity in albino CF1 mouse assessed as protection against maximal electroshock-induced seizures at 30 mg/kg, ip after 0.5 hrs; type: functional, organism-based; parameters: dose 30 mg/kg
Rattus norvegicus [6] = assay: Anticonvulsant activity in albino Sprague-Dawley rat assessed as protection against maximal electroshock-induced seizures at 30 mg/kg, po after 0.25 hrs; type: functional, organism-based; parameters: dose 30 mg/kg
Rattus norvegicus [7] = assay: Anticonvulsant activity in albino Sprague-Dawley rat assessed as protection against maximal electroshock-induced seizures at 30 mg/kg, po after 1 hr; type: functional, organism-based; parameters: dose 30 mg/kg
Mus musculus [8] = assay: Anticonvulsant activity in albino CF1 mouse assessed as protection against maximal electroshock-induced seizures at 100 mg/kg, ip after 0.5 hrs; type: functional, organism-based; parameters: dose 100 mg/kg
Mus musculus [9] = assay: Neurotoxicity in albino CF1 mouse assessed as minimal motor impairment at 30 mg/kg, ip after 0.5 hrs by rotarod test; type: toxicity, organism-based; parameters: dose 30 mg/kg, route intraperitoneal; conditions: in vivo
Mus musculus [10] = assay: Anticonvulsant activity in albino CF1 mouse assessed as protection against subcutaneous metrazole-induced seizures at 125 mg/kg, ip after 0.25 hrs; type: functional, organism-based; parameters: dose 125 mg/kg
Mus musculus [11] = assay: Anticonvulsant activity in albino CF1 mouse assessed as protection against maximal electroshock-induced seizures at 300 mg/kg, ip after 0.5 hrs; type: functional, organism-based; parameters: dose 300 mg/kg
Rattus norvegicus [12] = assay: Anticonvulsant activity in albino Sprague-Dawley rat assessed as protection against maximal electroshock-induced seizures at 30 mg/kg, po after 0.5 hrs; type: functional, organism-based; parameters: dose 30 mg/kg
Mus musculus [13] = assay: Anticonvulsant activity in albino CF1 mouse assessed as protection against subcutaneous metrazole-induced seizures at 30 mg/kg, ip after 0.5 hrs; type: functional, organism-based; parameters: dose 30 mg/kg
Mus musculus [14] = assay: Neurotoxicity in ip dosed albino CF1 mouse assessed as minimum dose required to cause toxicity after 0.5 hrs by rotarod test; type: organism-based; conditions: in vivo
Mus musculus [15] = assay: Anticonvulsant activity in albino CF1 mouse assessed as protection against subcutaneous metrazole-induced seizures at 300 mg/kg, ip after 0.5 hrs; type: functional, organism-based; parameters: dose 300 mg/kg
Mus musculus [16] = assay: Anticonvulsant activity against subcutaneous metrazole-induced seizures in ip dosed albino CF1 mouse assessed as minimum effective dose after 4 hrs; type: functional; conditions: albino CF1, 4 h, read-out: MED
Mus musculus [17] = assay: Neurotoxicity in ip dosed albino CF1 mouse assessed as minimal motor impairment after 0.25 hrs by rotarod test; type: toxicity, organism-based; conditions: in vivo
Mus musculus [18] = assay: Neurotoxicity in albino CF1 mouse assessed as minimal motor impairment at 30 to 300 mg/kg, po after 4 hrs by rotarod test; type: toxicity, organism-based; parameters: dose 30-300 mg/kg, route oral; conditions: in vivo
Mus musculus [19] = assay: Neurotoxicity in ip dosed albino CF1 mouse assessed as minimum dose required to cause toxicity after 4 hrs by rotarod test; type: organism-based; conditions: in vivo
Mus musculus [20] = assay: Neurotoxicity in albino CF1 mouse assessed as minimal motor impairment at 350 mg/kg, ip after 0.25 hrs by rotarod test; type: toxicity, organism-based; parameters: dose 350 mg/kg, route intraperitoneal; conditions: in vivo
Rattus norvegicus [21] = assay: Anticonvulsant activity in albino Sprague-Dawley rat assessed as protection against maximal electroshock-induced seizures at 30 mg/kg, po after 2 hrs; type: functional, organism-based; parameters: dose 30 mg/kg
Mus musculus [22] = assay: Neurotoxicity in albino CF1 mouse assessed as minimal motor impairment at 300 mg/kg, ip after 4 hrs by rotarod test; type: toxicity, organism-based; parameters: dose 300 mg/kg, route intraperitoneal; conditions: in vivo
Mus musculus [23] = assay: Neurotoxicity in albino CF1 mouse assessed as minimal motor impairment at 30 to 300 mg/kg, ip after 0.5 hrs by rotarod test; conditions: in vivo
Mus musculus [24] = organism: Mus musculus; assay: Protective index, ratio of TD50 for albino CF1 mouse by rotarod test to ED50 for albino CF1 mouse by maximal electroshock seizures test; type: functional
Mus musculus [25] = assay: Anticonvulsant activity in albino CF1 mouse assessed as protection against subcutaneous metrazole-induced seizures at 30 mg/kg, ip after 4 hrs; type: functional, organism-based; parameters: dose 30 mg/kg
[26] = target: Sodium channel protein type 2 subunit alpha (Homo sapiens, UniProt Q99250); assay: Inhibition of human NaV1.2 expressed in HEK cells at -60 mV holding potential by patch clamp recording technique; type: cell-based, HEK293
Mus musculus [27] = assay: Anticonvulsant activity in albino CF1 mouse assessed as protection against subcutaneous metrazole-induced seizures at 100 mg/kg, ip after 0.5 hrs; type: functional, organism-based; parameters: dose 100 mg/kg
Mus musculus [28] = assay: Neurotoxicity in albino CF1 mouse assessed as minimal motor impairment at 30 mg/kg, ip after 4 hrs by rotarod test; type: toxicity, organism-based; parameters: dose 30 mg/kg, route intraperitoneal; conditions: in vivo
Mus musculus [29] = assay: Anticonvulsant activity against maximal electroshock-induced seizures in ip dosed albino CF1 mouse assessed as minimum effective dose after 0.5 hrs; type: functional; conditions: read-out: MED
Mus musculus [30] = assay: Anticonvulsant activity against maximal electroshock-induced seizures in ip dosed albino CF1 mouse assessed as minimum effective dose after 4 hrs; type: functional; conditions: read-out: MED
Mus musculus [31] = assay: Anticonvulsant activity in albino CF1 mouse assessed as protection against maximal electroshock-induced seizures at 300 mg/kg, ip after 4 hrs; type: functional, organism-based; parameters: dose 300 mg/kg
Mus musculus [32] = assay: Anticonvulsant activity in albino CF1 mouse assessed as protection against subcutaneous metrazole-induced seizures at 250 mg/kg, ip after 0.25 hrs; type: functional, organism-based; parameters: dose 250 mg/kg
Rattus norvegicus [33] = assay: Neurotoxicity in albino Sprague-Dawley rat assessed as minimal motor impairment at 30 mg/kg, po by rotarod test; type: toxicity, organism-based; parameters: dose 30 mg/kg, route oral; conditions: in vivo
Mus musculus [34] = assay: Neurotoxicity in albino CF1 mouse assessed as minimal motor impairment at 100 mg/kg, ip after 0.5 hrs by rotarod test; type: toxicity, organism-based; parameters: dose 100 mg/kg, route intraperitoneal; conditions: in vivo
Mus musculus [35] = assay: Anticonvulsant activity against subcutaneous metrazole-induced seizures in ip dosed albino CF1 mouse assessed as minimum effective dose after 0.5 hrs; type: functional; conditions: albino CF1, 0.5 h, read-out: MED
Mus musculus [36] = assay: Anticonvulsant activity in albino CF1 mouse assessed as protection against maximal electroshock-induced seizures at 100 mg/kg, ip after 4 hrs; type: functional, organism-based; parameters: dose 100 mg/kg
Mus musculus [37] = assay: Anticonvulsant activity in albino CF1 mouse assessed as protection against maximal electroshock-induced seizures at 30 mg/kg, ip after 4 hrs; type: functional, organism-based; parameters: dose 30 mg/kg
Mus musculus [38] = assay: Anticonvulsant activity ip dosed albino CF1 mouse assessed as protection against subcutaneous metrazole-induced seizures after 0.25 hrs; type: functional; conditions: albino CF1, 0.25 h
Mus musculus [39] = assay: Anticonvulsant activity in albino CF1 mouse assessed as protection against maximal electroshock-induced seizures at 230 mg/kg, ip after 0.25 hrs; type: functional, organism-based; parameters: dose 230 mg/kg
Mus musculus [40] = assay: Neurotoxicity in albino CF1 mouse assessed as minimal motor impairment at 500 mg/kg, ip after 0.25 hrs by rotarod test; type: toxicity, organism-based; parameters: dose 500 mg/kg, route intraperitoneal; conditions: in vivo
Rattus norvegicus [41] = assay: Anticonvulsant activity in albino Sprague-Dawley rat assessed as protection against maximal electroshock-induced seizures at 30 mg/kg, po after 4 hrs; type: functional, organism-based; parameters: dose 30 mg/kg
Mus musculus [42] = assay: Neurotoxicity in albino CF1 mouse assessed as minimal motor impairment at 300 mg/kg, ip after 0.5 hrs by rotarod test; type: toxicity, organism-based; parameters: dose 300 mg/kg, route intraperitoneal; conditions: in vivo

Sodium channel protein type 2 subunit alpha, sequence (Q99250 whole entry): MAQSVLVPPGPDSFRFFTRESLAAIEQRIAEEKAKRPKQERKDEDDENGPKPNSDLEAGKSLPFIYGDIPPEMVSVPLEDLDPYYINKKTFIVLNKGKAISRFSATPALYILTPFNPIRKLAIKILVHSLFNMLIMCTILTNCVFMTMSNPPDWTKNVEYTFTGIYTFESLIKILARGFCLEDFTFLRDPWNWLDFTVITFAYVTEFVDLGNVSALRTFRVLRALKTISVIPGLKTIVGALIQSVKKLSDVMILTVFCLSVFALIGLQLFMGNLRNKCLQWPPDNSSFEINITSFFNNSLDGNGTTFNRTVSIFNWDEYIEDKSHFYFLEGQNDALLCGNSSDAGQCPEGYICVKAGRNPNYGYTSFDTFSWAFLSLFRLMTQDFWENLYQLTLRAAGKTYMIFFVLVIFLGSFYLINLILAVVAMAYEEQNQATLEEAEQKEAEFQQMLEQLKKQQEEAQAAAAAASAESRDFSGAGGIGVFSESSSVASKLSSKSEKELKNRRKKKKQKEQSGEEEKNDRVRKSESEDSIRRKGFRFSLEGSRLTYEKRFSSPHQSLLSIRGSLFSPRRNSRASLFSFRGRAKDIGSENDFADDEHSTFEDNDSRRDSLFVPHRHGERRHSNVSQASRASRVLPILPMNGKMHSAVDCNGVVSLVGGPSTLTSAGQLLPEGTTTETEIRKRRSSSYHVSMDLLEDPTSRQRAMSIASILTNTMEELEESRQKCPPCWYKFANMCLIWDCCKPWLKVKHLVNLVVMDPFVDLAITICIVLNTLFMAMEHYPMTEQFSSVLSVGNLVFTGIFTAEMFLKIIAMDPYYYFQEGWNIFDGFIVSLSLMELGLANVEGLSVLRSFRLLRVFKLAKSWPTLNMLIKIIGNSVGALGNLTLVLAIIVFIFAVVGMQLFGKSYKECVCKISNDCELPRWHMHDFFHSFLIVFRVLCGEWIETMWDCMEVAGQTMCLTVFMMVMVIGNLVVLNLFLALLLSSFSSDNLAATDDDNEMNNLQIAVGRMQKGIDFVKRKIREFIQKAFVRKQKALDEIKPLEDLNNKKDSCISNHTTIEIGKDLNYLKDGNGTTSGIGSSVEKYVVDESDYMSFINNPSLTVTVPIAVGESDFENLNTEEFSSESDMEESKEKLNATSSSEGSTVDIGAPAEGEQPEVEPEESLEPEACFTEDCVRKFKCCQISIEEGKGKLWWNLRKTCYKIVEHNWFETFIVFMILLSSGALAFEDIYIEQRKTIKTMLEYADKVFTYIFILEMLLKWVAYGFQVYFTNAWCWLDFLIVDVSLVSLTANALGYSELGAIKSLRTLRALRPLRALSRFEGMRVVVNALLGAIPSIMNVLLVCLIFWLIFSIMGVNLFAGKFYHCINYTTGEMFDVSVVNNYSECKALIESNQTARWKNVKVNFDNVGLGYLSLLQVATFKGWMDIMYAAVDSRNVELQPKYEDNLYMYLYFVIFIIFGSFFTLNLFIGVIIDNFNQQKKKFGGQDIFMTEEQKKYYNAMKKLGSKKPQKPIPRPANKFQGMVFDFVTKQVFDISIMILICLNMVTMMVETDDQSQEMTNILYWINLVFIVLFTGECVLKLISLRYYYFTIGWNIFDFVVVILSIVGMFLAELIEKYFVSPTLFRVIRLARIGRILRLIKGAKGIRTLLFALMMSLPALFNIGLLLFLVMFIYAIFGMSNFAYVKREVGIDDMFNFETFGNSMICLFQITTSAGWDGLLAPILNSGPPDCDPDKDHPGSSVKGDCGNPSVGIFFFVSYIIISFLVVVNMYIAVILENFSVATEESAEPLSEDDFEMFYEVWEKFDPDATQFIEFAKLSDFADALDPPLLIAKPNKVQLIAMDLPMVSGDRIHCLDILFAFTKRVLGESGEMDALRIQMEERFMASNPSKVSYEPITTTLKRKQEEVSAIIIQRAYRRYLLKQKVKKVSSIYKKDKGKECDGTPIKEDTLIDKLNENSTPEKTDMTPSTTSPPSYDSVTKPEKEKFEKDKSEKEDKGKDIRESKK

## Clc1cccc(-c2c[nH]c(-c3ccccc3)n2)c1
Mus musculus [1]
  ED50: 137 mg/kg
Mus musculus [2]
  Activity: inactive
Mus musculus [3]
  Activity: inactive
Mus musculus [4]
  Activity: Non-toxic
Mus musculus [5]
  Activity: inactive
Rattus norvegicus [6]
  Activity: inactive
Rattus norvegicus [7]
  Activity: inactive
Mus musculus [8]
  Activity: Active
Mus musculus [9]
  Activity: Non-toxic
Mus musculus [10]
  Activity: inactive
Mus musculus [11]
  Activity: Active
Rattus norvegicus [12]
  Activity: inactive
Mus musculus [13]
  Activity: inactive
Mus musculus [14]
  MED: 100 mg/kg
Mus musculus [15]
  Activity: inactive
Mus musculus [16]
  minimal effective dose: > 300 mg/kg
Mus musculus [17]
  TD50: > 500 mg/kg
Mus musculus [18]
  Activity: Non-toxic
Mus musculus [19]
  MED: > 300 mg/kg
Mus musculus [20]
  Activity: Non-toxic
Rattus norvegicus [21]
  Activity: inactive
Mus musculus [22]
  Activity: Non-toxic
Mus musculus [23]
  Activity: Non-toxic
Mus musculus [24]
  PI: >3.6
Mus musculus [25]
  Activity: inactive
[26]
  IC50: 17.9 µM
Mus musculus [27]
  Activity: inactive
Mus musculus [28]
  Activity: Non-toxic
Mus musculus [29]
  minimal effective dose: > 30 mg/kg
Mus musculus [30]
  minimal effective dose: 100 mg/kg
Mus musculus [31]
  Activity: Active
Mus musculus [32]
  Activity: inactive
Rattus norvegicus [33]
  Activity: Non-toxic
Mus musculus [34]
  Activity: Non-toxic
Mus musculus [35]
  minimal effective dose: > 300 mg/kg
Mus musculus [36]
  Activity: inactive
Mus musculus [37]
  Activity: inactive
Mus musculus [38]
  ED50: > 250 mg/kg
Mus musculus [39]
  Activity: Active
Mus musculus [40]
  Activity: Non-toxic
Rattus norvegicus [41]
  Activity: inactive

## COc1ccc(-c2c[nH]c(-c3ccccc3)n2)cc1
Mus musculus [2]
  Activity: inactive
Mus musculus [3]
  Activity: inactive
Mus musculus [4]
  Activity: Non-toxic
Mus musculus [42]
  Activity: Toxic
Mus musculus [5]
  Activity: inactive
Rattus norvegicus [6]
  Activity: inactive
Rattus norvegicus [7]
  Activity: inactive
Mus musculus [8]
  Activity: Active
Mus musculus [9]
  Activity: Non-toxic
Mus musculus [11]
  Activity: Active
Rattus norvegicus [12]
  Activity: inactive
Mus musculus [13]
  Activity: inactive
Mus musculus [14]
  MED: 100 mg/kg
Mus musculus [15]
  Activity: Active
Mus musculus [16]
  minimal effective dose: > 300 mg/kg
Mus musculus [19]
  MED: 100 mg/kg
Rattus norvegicus [21]
  Activity: inactive
Mus musculus [22]
  Activity: Toxic
Mus musculus [23]
  Activity: Non-toxic
Mus musculus [25]
  Activity: inactive
Mus musculus [27]
  Activity: inactive
Mus musculus [28]
  Activity: Non-toxic
Mus musculus [29]
  minimal effective dose: > 30 mg/kg
Mus musculus [30]
  minimal effective dose: 100 mg/kg
Mus musculus [31]
  Activity: Active
Rattus norvegicus [33]
  Activity: Non-toxic
Mus musculus [34]
  Activity: Non-toxic
Mus musculus [35]
  minimal effective dose: 100 mg/kg
Mus musculus [37]
  Activity: inactive
Rattus norvegicus [41]
  Activity: inactive

## Clc1ccc(-c2c[nH]c(-c3ccccc3)n2)cc1
Mus musculus [2]
  Activity: inactive
Mus musculus [3]
  Activity: inactive
Mus musculus [4]
  Activity: Non-toxic
Mus musculus [5]
  Activity: inactive
Rattus norvegicus [6]
  Activity: inactive
Rattus norvegicus [7]
  Activity: inactive
Mus musculus [8]
  Activity: Active
Mus musculus [9]
  Activity: Non-toxic
Mus musculus [11]
  Activity: Active
Rattus norvegicus [12]
  Activity: inactive
Mus musculus [13]
  Activity: inactive
Mus musculus [14]
  MED: 100 mg/kg
Mus musculus [15]
  Activity: inactive
Mus musculus [16]
  minimal effective dose: > 300 mg/kg
Mus musculus [18]
  Activity: Non-toxic
Mus musculus [19]
  MED: > 300 mg/kg
Rattus norvegicus [21]
  Activity: inactive
Mus musculus [22]
  Activity: Non-toxic
Mus musculus [23]
  Activity: Non-toxic
Mus musculus [25]
  Activity: inactive
Mus musculus [27]
  Activity: inactive
Mus musculus [28]
  Activity: Non-toxic
Mus musculus [29]
  minimal effective dose: > 30 mg/kg
Mus musculus [30]
  minimal effective dose: 100 mg/kg
Mus musculus [31]
  Activity: Active
Rattus norvegicus [33]
  Activity: Non-toxic
Mus musculus [34]
  Activity: Non-toxic
Mus musculus [35]
  minimal effective dose: > 300 mg/kg
Mus musculus [36]
  Activity: inactive
Mus musculus [37]
  Activity: inactive
Rattus norvegicus [41]
  Activity: inactive
